Reference: ChEMBL document CHEMBL1201861, “Genomics of Drug Sensitity in Cancer screening data, Wellcome Trust Sanger Institute”
Structures can show the parent of a compound that is named as a salt.

Experiments:
Assay in all cases: cells
COLO-792 = assay type: functional, cell-based, Homo sapiens
Description: SANGER: Inhibition of human COLO-792 cell growth in a cell viability assay.

COR-L23 = assay type: functional, cell-based, Homo sapiens
Description: SANGER: Inhibition of human COR-L23 cell growth in a cell viability assay.

Calu-3 = assay type: functional, cell-based, Homo sapiens
Description: SANGER: Inhibition of human Calu-3 cell growth in a cell viability assay.

DG-75 = assay type: functional, cell-based, Homo sapiens
Description: SANGER: Inhibition of human DG-75 cell growth in a cell viability assay.

ECC4 = assay type: functional, cell-based, Homo sapiens
Description: SANGER: Inhibition of human ECC4 cell growth in a cell viability assay.

EGI-1 = assay type: functional, cell-based, Homo sapiens
Description: SANGER: Inhibition of human EGI-1 cell growth in a cell viability assay.

HCC70 = assay type: functional, cell-based, Homo sapiens
Description: SANGER: Inhibition of human HCC70 cell growth in a cell viability assay.

HCT-116 = assay type: functional, cell-based, Homo sapiens
Description: SANGER: Inhibition of human HCT-116 cell growth in a cell viability assay.

HEC-1 = assay type: functional, cell-based, Homo sapiens
Description: SANGER: Inhibition of human HEC-1 cell growth in a cell viability assay.

HuCCT-1 = assay type: functional, cell-based, Homo sapiens, HuCCT1
Description: SANGER: Inhibition of human HuCCT1 cell growth in a cell viability assay.

JIYOYE = assay type: functional, cell-based, Homo sapiens
Description: SANGER: Inhibition of human JiyoyeP-2003 cell growth in a cell viability assay.

MDA-MB-134-VI = assay type: functional, cell-based, Homo sapiens
Description: SANGER: Inhibition of human MDA-MB-134-VI cell growth in a cell viability assay.

MEL-JUSO = assay type: functional, cell-based, Homo sapiens
Description: SANGER: Inhibition of human MEL-JUSO cell growth in a cell viability assay.

MHH-ES-1 = assay type: functional, cell-based, Homo sapiens
Description: SANGER: Inhibition of human MHH-ES-1 cell growth in a cell viability assay.

MONO-MAC-6 = assay type: functional, cell-based, Homo sapiens
Description: SANGER: Inhibition of human MONO-MAC-6 cell growth in a cell viability assay.

NALM-6 = assay type: functional, cell-based, Homo sapiens
Description: SANGER: Inhibition of human NALM-6 cell growth in a cell viability assay.

NB1 = assay type: functional, cell-based, Homo sapiens
Description: SANGER: Inhibition of human NB1 cell growth in a cell viability assay.

NCI-H1693 = assay type: functional, cell-based, Homo sapiens
Description: SANGER: Inhibition of human NCI-H1693 cell growth in a cell viability assay.

NCI-H1694 = assay type: functional, cell-based, Homo sapiens
Description: SANGER: Inhibition of human NCI-H1694 cell growth in a cell viability assay.

NCI-H1755 = assay type: functional, cell-based, Homo sapiens
Description: SANGER: Inhibition of human NCI-H1755 cell growth in a cell viability assay.

NCI-H1882 = assay type: functional, cell-based, Homo sapiens
Description: SANGER: Inhibition of human NCI-H1882 cell growth in a cell viability assay.

NCI-H2228 = assay type: functional, cell-based, Homo sapiens
Description: SANGER: Inhibition of human NCI-H2228 cell growth in a cell viability assay.

NCI-H2342 = assay type: functional, cell-based, Homo sapiens
Description: SANGER: Inhibition of human NCI-H2342 cell growth in a cell viability assay.

NCI-H460 = assay type: functional, cell-based, Homo sapiens
Description: SANGER: Inhibition of human NCI-H460 cell growth in a cell viability assay.

NCI-H716 = assay type: functional, cell-based, Homo sapiens
Description: SANGER: Inhibition of human NCI-H716 cell growth in a cell viability assay.

OE33 = assay type: functional, cell-based, Homo sapiens
Description: SANGER: Inhibition of human OE33 cell growth in a cell viability assay.

P31-FUJ = assay type: functional, cell-based, Homo sapiens
Description: SANGER: Inhibition of human P31-FUJ cell growth in a cell viability assay.

PA-1 = assay type: functional, cell-based, Homo sapiens
Description: SANGER: Inhibition of human PA-1 cell growth in a cell viability assay.

RPMI-2650 = assay type: functional, cell-based, Homo sapiens
Description: SANGER: Inhibition of human RPMI-2650 cell growth in a cell viability assay.

SIG-M5 = assay type: functional, cell-based, Homo sapiens
Description: SANGER: Inhibition of human SIG-M5 cell growth in a cell viability assay.

SK-N-AS = assay type: functional, cell-based, Homo sapiens
Description: SANGER: Inhibition of human SK-N-AS cell growth in a cell viability assay.

SW1573 = assay type: functional, cell-based, Homo sapiens
Description: SANGER: Inhibition of human SW1573 cell growth in a cell viability assay.

SW-620 = assay type: functional, cell-based, Homo sapiens
Description: SANGER: Inhibition of human SW620 cell growth in a cell viability assay.

SW948 = assay type: functional, cell-based, Homo sapiens
Description: SANGER: Inhibition of human SW948 cell growth in a cell viability assay.

T84 = assay type: functional, cell-based, Homo sapiens
Description: SANGER: Inhibition of human T84 cell growth in a cell viability assay.

A2058 = assay type: functional, cell-based, Homo sapiens
Description: SANGER: Inhibition of human A2058 cell growth in a cell viability assay.

AGS = assay type: functional, cell-based, Homo sapiens
Description: SANGER: Inhibition of human AGS cell growth in a cell viability assay.

BT-20 = assay type: functional, cell-based, Homo sapiens
Description: SANGER: Inhibition of human BT-20 cell growth in a cell viability assay.

CAL-39 = assay type: functional, cell-based, Homo sapiens
Description: SANGER: Inhibition of human CAL-39 cell growth in a cell viability assay.

CAL-72 = assay type: functional, cell-based, Homo sapiens
Description: SANGER: Inhibition of human CAL-72 cell growth in a cell viability assay.

U2OS = assay type: functional, cell-based, Homo sapiens, U-2-OS
Description: SANGER: Inhibition of human U-2-OS cell growth in a cell viability assay.

U-251 = assay type: functional, cell-based, Homo sapiens
Description: SANGER: Inhibition of human U251 cell growth in a cell viability assay.

UMC-11 = assay type: functional, cell-based, Homo sapiens
Description: SANGER: Inhibition of human UMC-11 cell growth in a cell viability assay.

YAPC = assay type: functional, cell-based, Homo sapiens
Description: SANGER: Inhibition of human YAPC cell growth in a cell viability assay.

CHL-1 = assay type: functional, cell-based, Homo sapiens
Description: SANGER: Inhibition of human CHL-1 cell growth in a cell viability assay.

## O=C(O)c1ccc(-c2c[nH]c3ncc(-c4ccccc4)cc23)cc1C1CCCC1 [GSK-650394]
COLO-792; Homo sapiens, COLO-792
  IC50: > 16 µM
COR-L23; Homo sapiens, COR-L23
  IC50: 4.76 µM
Calu-3; Homo sapiens, Calu-3
  IC50: 10.7 µM
DG-75; Homo sapiens, DG-75
  IC50: > 16 µM
ECC4; Homo sapiens, ECC4
  IC50: > 16 µM
EGI-1; Homo sapiens, EGI-1
  IC50: > 16 µM
HCC70; Homo sapiens, HCC70
  IC50: > 16 µM
HCT-116; Homo sapiens, HCT-116
  IC50: > 16 µM
HEC-1; Homo sapiens, HEC-1
  IC50: > 16 µM
HuCCT-1; Homo sapiens, HuCCT-1
  IC50: > 16 µM
JIYOYE; Homo sapiens, JIYOYE
  IC50: > 16 µM
MDA-MB-134-VI; Homo sapiens, MDA-MB-134-VI
  IC50: > 16 µM
MEL-JUSO; Homo sapiens, MEL-JUSO
  IC50: 4.69 µM
MHH-ES-1; Homo sapiens, MHH-ES-1
  IC50: 13.6 µM
MONO-MAC-6; Homo sapiens, MONO-MAC-6
  IC50: 1.18 µM
NALM-6; Homo sapiens, NALM-6
  IC50: 9.73 µM
NB1; Homo sapiens, NB1
  IC50: > 16 µM
NCI-H1693; Homo sapiens, NCI-H1693
  IC50: > 16 µM
NCI-H1694; Homo sapiens, NCI-H1694
  IC50: > 16 µM
NCI-H1755; Homo sapiens, NCI-H1755
  IC50: > 16 µM
NCI-H1882; Homo sapiens, NCI-H1882
  IC50: > 16 µM
NCI-H2228; Homo sapiens, NCI-H2228
  IC50: 4.64 µM
NCI-H2342; Homo sapiens, NCI-H2342
  IC50: 2.19 µM
NCI-H460; Homo sapiens, NCI-H460
  IC50: 3.4 µM
NCI-H716; Homo sapiens, NCI-H716
  IC50: > 16 µM
OE33; Homo sapiens, OE33
  IC50: 4.97 µM
P31-FUJ; Homo sapiens, P31-FUJ
  IC50: > 16 µM
PA-1; Homo sapiens, PA-1
  IC50: 3.33 µM
RPMI-2650; Homo sapiens, RPMI-2650
  IC50: > 16 µM
SIG-M5; Homo sapiens, SIG-M5
  IC50: 4.88 µM
SK-N-AS; Homo sapiens, SK-N-AS
  IC50: > 16 µM
SW1573; Homo sapiens, SW1573
  IC50: > 16 µM
SW-620; Homo sapiens, SW-620
  IC50: 1.93 µM
SW948; Homo sapiens, SW948
  IC50: > 16 µM
T84; Homo sapiens, T84
  IC50: 2.6 µM
A2058; Homo sapiens, A2058
  IC50: 13.5 µM
AGS; Homo sapiens, AGS
  IC50: 8.56 µM
BT-20; Homo sapiens, BT-20
  IC50: > 16 µM
CAL-39; Homo sapiens, CAL-39
  IC50: 9.31 µM
CAL-72; Homo sapiens, CAL-72
  IC50: > 16 µM
U2OS; Homo sapiens, U2OS
  IC50: > 16 µM
U-251; Homo sapiens, U-251
  IC50: > 16 µM
UMC-11; Homo sapiens, UMC-11
  IC50: > 16 µM
YAPC; Homo sapiens, YAPC
  IC50: > 16 µM
CHL-1; Homo sapiens, CHL-1
  IC50: 3.5 µM

## COC1=CC(c2cc3ccccc3[nH]2)=N/C1=C\c1[nH]c(C)cc1C [OBATOCLAX MESYLATE]
COLO-792; Homo sapiens, COLO-792
  IC50: 0.132 µM
COR-L23; Homo sapiens, COR-L23
  IC50: 0.0613 µM
Calu-3; Homo sapiens, Calu-3
  IC50: 0.253 µM
DG-75; Homo sapiens, DG-75
  IC50: 6.89 µM
ECC4; Homo sapiens, ECC4
  IC50: 5.09 µM
EGI-1; Homo sapiens, EGI-1
  IC50: 1.58 µM
HCC70; Homo sapiens, HCC70
  IC50: 1.46 µM
HCT-116; Homo sapiens, HCT-116
  IC50: 0.088 µM
HEC-1; Homo sapiens, HEC-1
  IC50: 0.0368 µM
HuCCT-1; Homo sapiens, HuCCT-1
  IC50: 0.0833 µM
JIYOYE; Homo sapiens, JIYOYE
  IC50: 0.203 µM
MDA-MB-134-VI; Homo sapiens, MDA-MB-134-VI
  IC50: 4.03 µM
MEL-JUSO; Homo sapiens, MEL-JUSO
  IC50: 0.0247 µM
MHH-ES-1; Homo sapiens, MHH-ES-1
  IC50: 0.186 µM
MONO-MAC-6; Homo sapiens, MONO-MAC-6
  IC50: 0.438 µM
NALM-6; Homo sapiens, NALM-6
  IC50: < 0.0625 µM
NB1; Homo sapiens, NB1
  IC50: 0.279 µM
NCI-H1693; Homo sapiens, NCI-H1693
  IC50: 2 µM
NCI-H1694; Homo sapiens, NCI-H1694
  IC50: 0.919 µM
NCI-H1755; Homo sapiens, NCI-H1755
  IC50: 5.23 µM
NCI-H1882; Homo sapiens, NCI-H1882
  IC50: 4.51 µM
NCI-H2228; Homo sapiens, NCI-H2228
  IC50: 0.893 µM
NCI-H2342; Homo sapiens, NCI-H2342
  IC50: 0.0512 µM
NCI-H460; Homo sapiens, NCI-H460
  IC50: 0.101 µM
NCI-H716; Homo sapiens, NCI-H716
  IC50: 1.69 µM
OE33; Homo sapiens, OE33
  IC50: 0.251 µM
P31-FUJ; Homo sapiens, P31-FUJ
  IC50: > 16 µM
PA-1; Homo sapiens, PA-1
  IC50: 0.0877 µM
RPMI-2650; Homo sapiens, RPMI-2650
  IC50: 0.023 µM
SIG-M5; Homo sapiens, SIG-M5
  IC50: < 0.0625 µM
SK-N-AS; Homo sapiens, SK-N-AS
  IC50: 1.05 µM
SW1573; Homo sapiens, SW1573
  IC50: 2.02 µM
SW-620; Homo sapiens, SW-620
  IC50: < 0.0625 µM
SW948; Homo sapiens, SW948
  IC50: 7.58 µM
T84; Homo sapiens, T84
  IC50: 0.212 µM
A2058; Homo sapiens, A2058
  IC50: 0.107 µM
AGS; Homo sapiens, AGS
  IC50: 0.386 µM
BT-20; Homo sapiens, BT-20
  IC50: 4.49 µM
CAL-39; Homo sapiens, CAL-39
  IC50: 0.229 µM
CAL-72; Homo sapiens, CAL-72
  IC50: 0.534 µM
U2OS; Homo sapiens, U2OS
  IC50: > 16 µM
U-251; Homo sapiens, U-251
  IC50: 0.335 µM
UMC-11; Homo sapiens, UMC-11
  IC50: 1.4 µM
YAPC; Homo sapiens, YAPC
  IC50: 5.99 µM
CHL-1; Homo sapiens, CHL-1
  IC50: 0.0486 µM

## BLEOMYCIN
COLO-792; colo-792
  IC50: 26.4 µM
COR-L23; cor-l23
  IC50: 0.0755 µM
Calu-3; calu-3
  IC50: 6.19 µM
DG-75; dg-75
  IC50: 16.9 µM
ECC4; ecc4
  IC50: 56.7 µM
EGI-1; egi-1
  IC50: 0.772 µM
HCC70; hcc70
  IC50: 126 µM
HCT-116; hct-116
  IC50: 2.88 µM
HEC-1; hec-1
  IC50: 27.4 µM
HuCCT-1; hucct1
  IC50: 10.9 µM
JIYOYE; jiyoye
  IC50: 3.38 µM
MDA-MB-134-VI; mda-mb-134-vi
  IC50: 340 µM
MEL-JUSO; mel-juso
  IC50: 0.109 µM
MHH-ES-1; mhh-es-1
  IC50: 0.0436 µM
MONO-MAC-6; mono-mac-6
  IC50: 4.59 µM
NALM-6; nalm-6
  IC50: 0.42 µM
NB1; nb1
  IC50: 11.6 µM
NCI-H1693; nci-h1693
  IC50: 16.6 µM
NCI-H1694; nci-h1694
  IC50: 43.9 µM
NCI-H1755; nci-h1755
  IC50: 26 µM
NCI-H1882; nci-h1882
  IC50: 11.5 µM
NCI-H2228; nci-h2228
  IC50: 0.955 µM
NCI-H2342; nci-h2342
  IC50: 0.0138 µM
NCI-H460; nci-h460
  IC50: 4.76 µM
NCI-H716; nci-h716
  IC50: 1420 µM
OE33; oe33
  IC50: 2.75 µM
P31-FUJ; p31-fuj
  IC50: 460 µM
PA-1; pa-1
  IC50: 2.02 µM
RPMI-2650; rpmi-2650
  IC50: 0.633 µM
SIG-M5; sig-m5
  IC50: 0.586 µM
SK-N-AS; sk-n-as
  IC50: 1950 µM
SW1573; sw1573
  IC50: 0.137 µM
SW-620; sw-620
  IC50: 3.56 µM
SW948; sw948
  IC50: 354 µM
T84; t84
  IC50: 13.5 µM
A2058; a2058
  IC50: 0.808 µM
AGS; ags
  IC50: 0.503 µM
BT-20; bt-20
  IC50: 2.77 µM
CAL-39; cal-39
  IC50: 0.000315 µM
CAL-72; cal-72
  IC50: 580 µM
U2OS; u-2-os
  IC50: 265 µM
U-251; u-251
  IC50: 4.36 µM
UMC-11; umc-11
  IC50: 2360 µM
YAPC; yapc
  IC50: 4190 µM
CHL-1; chl-1
  IC50: 0.732 µM
